According to patent US10844032B2, “Substituted benzofuran, benzothiophene and indole Mcl-1 inhibitors” (Vanderbilt University, priority 2012, dated 2020):

Target: recombinant Mcl-1 (residues 172-327) (Homo sapiens (Human), UniProt Q07820)
Assay: Bak peptide fluorescence polarization anisotropy competition assay, Mcl-1
Type: binding
Conditions: Table 2, Ki range; FITC-Bak peptide 10 nM, Mcl-1 14 nM; read-out: Ki for inhibition of Mcl-1

recombinant Mcl-1 (residues 172-327), sequence (Q07820 172-327): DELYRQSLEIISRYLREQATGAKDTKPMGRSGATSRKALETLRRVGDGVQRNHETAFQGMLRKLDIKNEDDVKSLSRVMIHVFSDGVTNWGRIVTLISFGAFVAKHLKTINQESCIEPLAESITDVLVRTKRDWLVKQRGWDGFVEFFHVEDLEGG

SMILES | Ki
Cc1cc(OCCCc2c(C(=O)NS(=O)(=O)CCNC(=O)C3CCCCC3)[nH]c3c(-c4c(CO)nn(C)c4C)cccc23)cc(C)c1Cl [Example 205, 3-(3-(4-chloro-3,5-dimethylphenoxy)propyl)-N-((2-(cyclohexanecarboxamido)ethyl)sulfonyl)-7-(3-(hydroxymethyl)-1,5-dimethyl-1H-pyrazol-4-yl)-1H-indole-2-carboxamide] | ≤ 100 nM
Cc1cc(OCCCc2c(C(=O)NS(=O)(=O)c3ccc(CO)o3)[nH]c3cc(Cl)ccc23)cc(C)c1Cl [Example 260, -chloro-3-(3-(4-chloro-3,5-dimethylphenoxy)propyl)-N-((5-(hydroxymethyl)furan-2-yl)sulfonyl)-1H-indole-2-carboxamide] | ≤ 100 nM
Cc1cc(OCCCc2c(C(=O)NS(C)(=O)=O)[nH]c3cccc(Br)c23)cc(C)c1Cl [Example 113, 4-bromo-3-(3-(4-chloro-3,5-dimethylphenoxy)propyl)-N-(methylsulfonyl)-1H-indole-2-carboxamide] | ≤ 100 nM
Cc1cc(OCCCc2c(C(=O)NS(=O)(=O)c3ccccc3)[nH]c3cc(Cl)ccc23)cc(C)c1Cl [Example 216, 6-chloro-3-(3-(4-chloro-3,5-dimethylphenoxy)propyl)-N-(phenylsulfonyl)-1H-indole-2-carboxamide] | ≤ 100 nM
Cc1cc(OCCCc2c(C(=O)NS(=O)(=O)CCNC(=O)[C@@H]3Cc4ccccc4N3)[nH]c3cc(Cl)ccc23)cc(C)c1Cl [Example 237, (S)-6-chloro-3-(3-(4-chloro-3,5-dimethylphenoxy)propyl)-N-((2-(indoline-2-carboxamido)ethyl)sulfonyl)-1H-indole-2-carboxamide] | ≤ 100 nM
Cc1cc(OCCCc2c(C(=O)NS(=O)(=O)c3ccccc3)[nH]c3c(-c4c(COCCN(C)C)nn(C)c4C)cccc23)cc(C)c1Cl [Example 308, 3-(3-(4-chloro-3,5-dimethylphenoxy)propyl)-7-(3-((2-(dimethylamino)ethoxy)methyl)-1,5-dimethyl-1H-pyrazol-4-yl)-N-(phenylsulfonyl)-1H-indole-2-carboxamide] | ≤ 100 nM

Same assay, conditions: read-out: Ki for inhibition of Mcl-1

SMILES | Ki
Cc1cc(OCCCc2c(C(=O)NS(=O)(=O)CCNS(=O)(=O)c3ccccc3)[nH]c3ccccc23)cc(C)c1Cl [Example 146, 3-(3-(4-chloro-3,5-dimethylphenoxy)propyl)-N-((2-(phenylsulfonamido)ethyl)sulfonyl)-1H-indole-2-carboxamide] | 101 to 299 nM
CS(=O)(=O)NC(=O)c1cc2ccccc2n1CCCOc1cccc2ccccc12 [Example 14, N-(methylsulfonyl)-1-(3-(naphthalen-1-yloxy)propyl)-1H-indole-2-carboxamide] | 301 to 500 nM
O=C(O)c1oc2ccccc2c1CCc1cccc2ccccc12 [Example 23, 3-(2-(naphthalen-1-yl)ethyl)benzofuran-2-carboxylic acid] | 10000 to 50000 nM
Cc1cc(OCCCc2c(C(=O)NS(=O)(=O)c3ccc(Oc4ccccc4)cc3)[nH]c3ccccc23)cc(C)c1Cl [Example 132, 3-(3-(4-chloro-3,5-dimethylphenoxy)propyl)-N-((4-phenoxyphenyl)sulfonyl)-1H-indole-2-carboxamide] | 301 to 500 nM
Cc1cc(OCCCc2c(C(=O)NS(=O)(=O)Cc3ccccc3)[nH]c3cc(Cl)ccc23)cc(C)c1Cl [Example 66, N-(benzylsulfonyl)-6-chloro-3-(3-(4-chloro-3,5-dimethylphenoxy)propyl)-1H-indole-2-carboxamide] | 101 to 299 nM
Cc1cc(OCCCc2c(C(=O)NS(=O)(=O)c3ccc(Oc4ccccc4)cc3)[nH]c3cc(Cl)ccc23)cc(C)c1Cl [Example 222, 6-chloro-3-(3-(4-chloro-3,5-dimethylphenoxy)propyl)-N-((4-phenoxyphenyl)sulfonyl)-1H-indole-2-carboxamide] | 101 to 299 nM
Cc1cc(OCCCc2c(C(=O)NS(=O)(=O)CCNC(=O)[C@@H]3Cc4ccccc4N3)[nH]c3ccccc23)cc(C)c1Cl [Example 168, (S)-3-(3-(4-chloro-3,5-dimethylphenoxy)propyl)-N-((2-(indoline-2-carboxamido)ethyl)sulfonyl)-1H-indole-2-carboxamide] | 101 to 299 nM
Cc1cc(OCCCc2c(C(=O)NS(=O)(=O)CCNC(=O)c3cccn3Cc3ccc(F)cc3)[nH]c3cc(Cl)ccc23)cc(C)c1Cl [Example 242, 6-chloro-3-(3-(4-chloro-3,5-dimethylphenoxy)propyl)-N-((2-(1-(4-fluorobenzyl)-1H-pyrrole-2-carboxamido)ethyl)sulfonyl)-1H-indole-2-carboxamide] | 101 to 299 nM
Cc1cccc(Cn2cccc2C(=O)NCCS(=O)(=O)NC(=O)c2[nH]c3cc(Cl)ccc3c2CCCOc2cc(C)c(Cl)c(C)c2)c1 [Example 245, 6-chloro-3-(3-(4-chloro-3,5-dimethylphenoxy)propyl)-N-((2-(1-(3-methylbenzyl)-1H-pyrrole-2-carboxamido)ethyl)sulfonyl)-1H-indole-2-carboxamide] | 101 to 299 nM
Cc1cc(OCCCc2c(C(=O)NS(C)(=O)=O)[nH]c3c(Br)cccc23)cc(C)c1Cl [Example 83, 7-bromo-3-(3-(4-chloro-3,5-dimethylphenoxy)propyl)-N-(methylsulfonyl)-1H-indole-2-carboxamide] | 301 to 500 nM
CS(=O)(=O)NC(=O)c1[nH]c2ccccc2c1CCCOc1cccc2c1CCC2 [Example 74, 3-(3-((2,3-dihydro-1H-inden-4-yl)oxy)propyl)-N-(methylsulfonyl)-1H-indole-2-carboxamide] | 1000 to 9990 nM
CS(=O)(=O)NC(=O)c1[nH]c2ccccc2c1CCCOc1ccc(Br)cc1 [Example 36, 3-(3-(4-bromophenoxy)propyl)-N-(methylsulfonyl)-1H-indole-2-carboxamide] | 10000 to 50000 nM
COc1ccc(Oc2cccc(S(=O)(=O)NC(=O)c3[nH]c4cc(Cl)ccc4c3CCCOc3cc(C)c(Cl)c(C)c3)c2)cc1 [Example 220, 6-chloro-3-(3-(4-chloro-3,5-dimethylphenoxy)propyl)-N-((3-(4-methoxyphenoxy)phenyl)sulfonyl)-1H-indole-2-carboxamide] | 101 to 299 nM
Cc1cc(OCCCc2c(C(=O)NS(C)(=O)=O)sc3cccc(Cl)c23)cc(C)c1Cl [Example 71, 4-chloro-3-(3-(4-chloro-3,5-dimethylphenoxy)propyl)-N-(methylsulfonyl)benzo[b]thiophene-2-carboxamide] | 1000 to 9990 nM
O=C(NS(=O)(=O)c1ccc2ccccc2c1)c1oc2ccccc2c1CCCOc1cccc2ccccc12 [Example 25, 3-(3-(naphthalen-1-yloxy)propyl)-N-(naphthalen-2-ylsulfonyl)benzofuran-2-carboxamide] | 1000 to 9990 nM
Cc1ccc2c(CCCOc3cccc4ccccc34)c(C(=O)NS(C)(=O)=O)[nH]c2c1 [Example 118, 6-Methyl-N-(methylsulfonyl)-3-(3-(naphthalen-1-yloxy)propyl)-1H-indole-2-carboxamide] | 1000 to 9990 nM
Cc1cc(OCCCc2c(C(=O)NS(=O)(=O)CCNC(=O)c3ccccc3F)[nH]c3ccccc23)cc(C)c1Cl [Example 160, 3-(3-(4-chloro-3,5-dimethylphenoxy)propyl)-N-((2-(2-fluorobenzamido)ethyl)sulfonyl)-1H-indole-2-carboxamide] | 301 to 500 nM
Cc1cc(OCCCc2c(C(=O)NS(=O)(=O)c3ccncc3)[nH]c3ccccc23)cc(C)c1Cl [Example 134, 3-(3-(4-chloro-3,5-dimethylphenoxy)propyl)-N-(pyridin-4-ylsulfonyl)-1H-indole-2-carboxamide] | 301 to 500 nM
